Source: US20230094545A1, “S1P RECEPTOR MODULATORS” (AKAAL PHARMA PTY LTD, priority 2020, published 2023)
Where “and” joins values, the source holds several entries; their conditions need not be identical. Identical values can stand only once. Like-named read-outs stand apart in the source and are kept apart here.

Key:
[1] = tested on: paclitaxel induced neuropathic pain; test: Paclitaxel induced neuropathic pain; type: in vivo, Sprague Dawley Rats
Method: Forty-eight male Sprague Dawley Rats were assigned to different treatment and control groups containing 8 animals per group. All animals, except the Naive control were injected with Paclitaxel (2 mg/kg) intraperitoneally on four alternate days (D0, D2, D4 and D6). For prophylactic intervention, the compound of Formula I was dosed orally at dose of 0.3, 1 and 3 mg/kg/day when the treatment was initiated along with paclitaxel treatment and the dosage was continued until day 15 post first paclitaxel injection. For therapeutic intervention, the compound of Formula I was dosed orally at dose of 3 mg/kg/day when the treatment was initiated after establishment of neuropathic pain i.e. on day 16 post first paclitaxel injection and was continued for the next 7 days.
For behavioural testing each rat was allowed to acclimatize individually to a transparent enclosure on elevated wire mesh for at least 15 min. Behavioural testing was performed using an Electronic von Frey Aesthesiometer (IITC Life Science) to evaluate paw withdrawal threshold to mechanical stimulus.
Based on these findings it can be concluded that treatment with the compound of formula (I) is effective both as a prophylactic and therapeutic and has an anti-allodynic effect in paclitaxel induced neuropathic pain.

arthritis pain = test: Topical treatment of arthritis patients with pain; type: in vivo, human; details: for numerical rating scale for pain scoring (NRS): baseline Day 1 7.1±1.38
Method: (§1) Fifteen arthritis patients who were experiencing pain were treated with the compound of Formula I@60 mg daily dosing as a topical treatment for seven consecutive days. […] The subjects blood parameters, urine alysis, vital signs, physical examination, ECG were normal.
(§2) The numerical rating scale for pain scoring (NRS) in a compound of Formula I treated group […] reduced from 7.1±1.38 (Day 1; baseline) to 5.8±2.12 (Day 3) and 4.8±2.72 (Day 7). The mean NRS score change from baseline was −1.3±1.54 (Day 3) and −2.3±2.06 (Day 7) points in arthritis participants treated with compound of Formula I. In osteoarthritis participants, the mean change in pain score from Day 1 to Day 7 was of −1.9±1.46 and −1.9±1.57 for pain felt and worst pain felt in 24 hours, respectively. […] The systemic exposure on day 7 ranged from 0.42 ng/mL to 2.44 ng/mL (average 0.79 ng/mL).

[2] = Topical treatment of arthritis patients with pain; type: in vivo, human; details: human, in vivo, topical, 60 mg daily, day 7, 60 mg daily topical
Method: as §1, §2

[3] = tested on: RAW 264.7 cell line (monocyte cells); test: Heat-killed P. acne challenged RAW 264.7 cells, cytokines by ELISA; type: cell-based; details: Mus musculus, RAW264.7, compared to untreated
Method: RAW 264.7 cell line (monocyte cells) challenged with the heat-killed Propionibacterium acne (P. acne) and incubated for 1 hour and were divided into four groups as G1=not challenged with P. acne, G2=challenged with P. acne but untreated, G3=challenged with P. acne and treated with 1 μM of compound of formula I, G3=challenged with P. acne and treated with 3 μM of compound of formula I. The ELISA method was used to analyze the effect of compound of formula I on the secretion of proinflammatory cytokines the TNFα and IL6. Compound of formula I inhibits the cytokines in P. acne challenged monocyte cells. The results are shown in below FIG. 6. The compound of formula I inhibit the secretion of TNFα@1 μM=˜42% and @3 μM=˜69% and IL6@1 μM=˜27% and @3 μM=˜42% compared to untreated in P. acne challenged cell line.

mould = test: Anti-mould (antifungal) activity on wheat flour bread; details: 1% ww and 3% ww water solution on bread, day 14, room temperature
Method: The compound of formula I solution as 0% ww, 1% ww and 3% ww as I mL water solution was added to a glass jar (5 mL) containing the fresh wheat flour bread (1 gm). The content was mixed well in order to wet the bread with solution. The content was kept in open glass cylinder for 14 days at room temperature and light (normal conditions) and the photos of Day 1 and Day 14 were taken (FIGS. 5A and B respectively). […] The mould is common in many skin indications and other human, animal and plant diseases. For example, Rhizopus stolonifera.

[4] = tested on: kainic acid induced seizures; test: Kainic acid model of epilepsy; type: in vivo, Sprague Dawley rats
Method: In an animal model of epilepsy, Sprague Dawley rats (n=6) were treated with the compound of Formula I or vehicle, dosed 1 hour prior to kainic acid administration (10 mg/kg, IP). […] There was significant reduction in seizures (70%, p<0.005) in the compound of formula (I) treated group. The changes observed in the hippocampal region of control animals included, minimal to mild neuronal cell death which included vaculations in neuronal cells particularly at C3 and C1 regions proving the compound of Formula I is neuroprotective.

[5] = 8 mg daily oral dosing for 7 days in healthy human subjects: systemic exposure, lymphocyte counts; type: in vivo
Method: One cohort (8 human subjects) was treated daily with 8 mg oral dosing for 7 consecutive days.

psoriasis = test: Topical treatment of psoriasis patients; type: in vivo, human
Method: (§3) Twelve psoriasis patients were treated with the compound of Formula I@30 mg daily dosing under occlusion as topical treatment for 28 consecutive days. […] The systemic exposure after topical applications was recorded below the limit of quantification (BLQ) <0.400 ng/mL.

[6] = Topical treatment of psoriasis patients; type: in vivo, human; details: human, in vivo, 30 mg daily; after topical applications, below the limit of quantification; read-out: systemic exposure
Method: as §3

[7] = read-out: inhibition of secretion of IL6
[8] = read-out: inhibition of secretion of TNFα
[9] = individual healthy human subjects, 8 mg oral daily for 7 days, listed as compound of formula (1)

## CCCOc1ccc(-c2nc(-c3ccc4oc(C(N)(CO)CO)cc4c3)no2)cc1Cl [compound of formula (I)]
[1]; 3 mg/kg/day oral after establishment of pain, maximum effect after 5th daily dose
  neuropathic pain, therapeutic treatment: reversal of neuropathic pain in time dependent manner
[1]; 0.3, 1 and 3 mg/kg/day oral, maximum effect at 3 mg/kg/day
  development of neuropathic pain, prophylactic treatment: inhibited the development of paclitaxel induced neuropathic pain dose dependently
[1]; preventive model, 1 and 3 mg/kg dose levels, p<0.001
  reduction of day 16 score: > 60%
[1]; until 7 days post last drug treatment (day 22)
  anti-allodynic effect after withdrawal of treatment on day 15: did not cause any reversal of the drug's anti-allodynic effect
Arthritis pain; 60 mg daily topical, 7 days
  absolute lymphocyte count: no systemic change in the absolute lymphocyte count
Arthritis pain; 60 mg daily topical, seven days
  safety and tolerability: safe and well tolerated
Arthritis pain; Day 3
  mean NRS score change from baseline: −1.3±1.54 points
  numerical rating scale for pain scoring (NRS): 5.8±2.12
Arthritis pain; Day 7
  mean NRS score change from baseline: −2.3±2.06 points
  numerical rating scale for pain scoring (NRS): 4.8±2.72
Arthritis pain; all treated participants (n=12), Day 3, 60 mg daily topical
  positive PGART response: 41.7 % participants
Arthritis pain; all treated participants (n=12), Day 7, 60 mg daily topical
  positive PGART response: 58.3 % participants
Arthritis pain; osteoarthritis participants, Day 1 to Day 7, p=0.0153
  mean change in pain score, pain felt: −1.9±1.46
Arthritis pain; osteoarthritis participants, Day 1 to Day 7, p=0.0205
  mean change in pain score, worst pain felt in 24 hours: −1.9±1.57
Arthritis pain; participants with osteoarthritis, Day 3
  positive PGART response: 28.6 % participants
Arthritis pain; participants with osteoarthritis, Day 7
  positive PGART response: 57.1 % participants
[2]; read-out: systemic exposure, average
  concentration at 7 day: 0.79 ng/mL
[2]; read-out: systemic exposure, range
  concentration at 7 day: 0.42 to 2.44 ng/mL
[3]; [7]
  inhibition at 1 µM: ~27%
  inhibition at 3 µM: ~42%
[3]; [8]
  inhibition at 1 µM: ~42%
  inhibition at 3 µM: ~69%
mould
  mould growth: preventing mould growth at day 14
[4]; dosed 1 hour prior to kainic acid, p<0.005
  reduction in seizures: 70%
[4]; rat, in vivo
  neuroprotection (hippocampal histology): neuroprotective
[5]; 2 g daily topical 3% ww for 3 weeks and oral 8 mg daily for one week
  bradycardia and lymphopenia: without event of bradycardia and significant lymphopenia
[5]; human, in vivo, po, 8 mg daily, humans, 8 mg oral daily for 7 days
  concentration at 7 days: ~53 ng/mL
[5]; humans, 8 mg daily dosing for one week
  measured lymphopenia: up to 40%
[5]; humans, 8 mg oral daily for 7 consecutive days
  lymphopenia: mild lymphopenia
[5]; humans, 8 mg oral daily for 7 days
  systemic exposure (mean / average): 53.3 ng/mL
[5]; [9]
  ALC Change (%): −33.33% and −27.66% and −35.71% and 0% and +40% and −22.58% and −15.56% and −20%
  CD3 Change (%): −18.75% and −30.32% and −30.58% and −0.6% and −12.58% and −5.77% and −12.36% and −11.86%
  CD4 Change (%): −22.41% and −33.62% and −32% and −5.2% and −10.91% and −8.21% and −25.3% and −7.87%
  CD8 Change (%): −19.05% and −27.87% and −31.74% and −1.67% and −13.79% and 0% and −7.06% and −11.86%
psoriasis; 30 mg daily topical, 28 days
  absolute lymphocyte count: no systemic change in the absolute lymphocyte count
  tolerability: well tolerated
psoriasis; day 28, from 5.8 (day 1), 30 mg daily topical under occlusion, p<0.0016
  local psoriasis severity index (LPSI) score: −2.1
psoriasis; some subjects, image analysis
  plaque area: reduction in plaque area
[6]
  concentration at 28 days: < 0.4 ng/mL
